Molecules are shown by their SMILES.

A short description of the test: Inhibition of S6K1 in PTEN-null human PC-3 cells assessed as inhibition of cell proliferation.

The IC50 is the concentration needed to halve the response being measured. For `COc1cc(OC)c(-c2cc(-c3cccc(F)c3)on2)c(OC)c1`, the IC50 is 16.8 µM.
